Experimental findings from patent US12617831B2 (UNIVERSITE D'ANGERS, priority 2019, dated 2026) are described below.

One data set relates to MC3T3-E1 cells. The format is cell-based, murine. The method, then: Increased plasma membrane permeability that occurs during cell death can be visualised using trypan blue, a dye that is excluded from living cells and is incorporated into the cells when they are undergoing death (Bellido and Plotkin (2008) Methods Mol. Biol. 455:51-75).
After 24 h, the cell culture supernatant containing the floating cells was collected and put in previously labelled eppendorf tubes. Each well was washed in PBS before trypsin was added to detach adherent cells. The mixture containing detached adherent cells was collected and pooled in the eppendorf containing the cell culture supernatant. Cells were spun at 1,500 rotation per minute (rpm) for 10 minutes, the supernatant was removed carefully and cells were incubated with trypan blue 0.04% and transferred into a haemocytometer. Living (clear) and dead (blue) cells were counted under light microscope examination and the percentage of dead cells was determined for each condition as follow: % of dead cells=100×(Number of dead cells)/(Number of dead cells+Number of living cells)

The target in a further data set is T1, human GIPr (Homo sapiens, UniProt P48546).
T1 construct: host or cells: HEK-293
T1 sequence (P48546 22-466): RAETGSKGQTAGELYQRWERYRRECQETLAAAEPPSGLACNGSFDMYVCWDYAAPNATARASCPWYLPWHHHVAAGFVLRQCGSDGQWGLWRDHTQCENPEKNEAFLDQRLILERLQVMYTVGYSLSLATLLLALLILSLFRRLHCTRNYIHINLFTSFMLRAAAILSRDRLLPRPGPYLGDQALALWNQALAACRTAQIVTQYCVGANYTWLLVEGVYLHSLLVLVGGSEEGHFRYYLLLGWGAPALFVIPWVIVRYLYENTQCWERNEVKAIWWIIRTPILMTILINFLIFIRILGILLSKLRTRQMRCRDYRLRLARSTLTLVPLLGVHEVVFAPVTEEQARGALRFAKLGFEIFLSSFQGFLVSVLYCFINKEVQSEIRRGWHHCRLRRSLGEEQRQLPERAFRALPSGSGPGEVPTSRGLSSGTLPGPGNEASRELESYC
The data set can be described thus: Cyclic AMP assay (FRET, H74 probe), HEK-293 transfected with human GIPr. The format is cell-based. As to conditions: HEK 293 transfected only with human GIPr, 10^-9 M, 30 min (FIG. 16). Here is the method: Human HEK-293 cells were plated at a density of 2×10^5 cells/cm^2 in 4 well microslides (ibidi GmbH, Martinsried, Germany). […] Jalink (Netherland Cancer Institute, Amsterdam, Netherland). […] The image acquisition was performed with a 63 X, 1.4 N.A. oil immersion objective and a Hybrid® detector (Leica) and images were collected after 30 minutes. Donor excitation was made with a 458 nm Ar laser, donor emission was collected between 460-505 nm and acceptor emission between 520-600 nm by setting the SP8 spectrometer accordingly. FRET was expressed as the ratio between donor and acceptor signals.

On to `CC[C@H](C)[C@H](NC(=O)[C@H](CO)NC(=O)[C@H](CCSC)NC(=O)[C@H](CC(=O)O)NC(=O)[C@H](CO)NC(=O)CNC(=O)[C@H](Cc1ccccc1)NC(=O)[C@H](CO)NC(=O)CNC(=O)[C@H](CCC(=O)O)NC(=O)CNC(=O)[C@@H](N)Cc1c[nH]cn1)C(=O)N[C@@H](C)C(=O)N[C@@H](CC(C)C)C(=O)N[C@@H](CC(=O)O)C(=O)N[C@@H](CCCCN)C(=O)N[C@@H](CC(C)C)C(=O)N[C@@H](C)C(=O)N[C@@H](C)C(=O)N[C@@H](CCCNC(=N)N)C(=O)N[C@@H](CC(=O)O)C(=O)N[C@@H](Cc1ccccc1)C(=O)N[C@H](C(=O)N[C@@H](CC(N)=O)C(=O)N[C@@H](Cc1c[nH]c2ccccc12)C(=O)N[C@@H](CC(C)C)C(=O)N[C@@H](CC(C)C)C(=O)N[C@@H](CCC(N)=O)C(=O)N[C@H](C(=O)N[C@@H](CCCCN)C(=O)N[C@H](C(=O)N[C@H](C(=O)N[C@@H](CC(=O)O)C(=O)O)[C@@H](C)O)[C@@H](C)CC)[C@@H](C)O)C(C)C` [GL-0001], for which, in the data set on MC3T3-E1 cells, the osteoblast cell death result is given as “does not induce cell death”. Further, at human GIPr, the “intracellular levels of cAMP” value is on record as “increased intracellular levels of cAMP”.
